The values that follow come from PMC10384562, “Synthesis and Structure Determination of Substituted Thiazole Derivatives as EGFR/BRAF^V600E Dual Inhibitors Endowed with Antiproliferative Activity” (Pharmaceuticals, 2023).

Read-outs that look alike come from different tables or passages of the source.

The target in series [1] is T1, EGFR (Homo sapiens, UniProt P00533).
T1 construct: CD, amino acids 645–1186); His6 (N); made in house; host or cells: Sf-9 insect cells (baculovirus; pBlueBacHis2B / pFASTBacHTc
Also on record: method as in doi:10.1016/j.arabjc.2023.104612. The settings on record: ref [36]; cited from earlier work.

The test system of series [2] is four evaluated cancer cell lines. Set-up: method as in doi:10.1016/j.arabjc.2023.104612. The settings on record: ref [36]; read-out: GI50 against the four evaluated cancer cell lines; cited from earlier work.
A short description of the next series: in vitro. The note with it: human.
Series [3] has as its system breast cancer (MCF-7) cell line. Briefly: Antiproliferative assay, MCF-7. The format is cell-based. The note with it: Homo sapiens, MCF7; MCF-7 breast cancer cells; read-out: Antiproliferative Activity IC50 ± SEM, MCF-7. On the procedure:
(§1) 4.2.1.2. Assay for antiproliferative effect
(§2) To explore the antiproliferative potential of compounds propidium iodide fluorescence assay was performed using different cell lines such as Panc-1 (pancreas cancer cell line), MCF-7 (breast cancer cell line), HT-29 (colon cancer cell line) and A-549 (epithelial cancer cell line), respectively. To calculate the total nuclear DNA, a fluorescent dye (propidium iodide, PI) is used which can attach to the DNA, thus offering a quick and precise technique. PI cannot pass through the cell membrane and its signal intensity can be considered as directly proportional to quantity of cellular
(§3) DNA. Cells whose cell membranes are damaged or have changed permeability are counted as dead ones. The assay was performed by seeding the cells of different cell lines at a density of 3000-7500 cells/well (in200μl medium) in culture plates followed by incubation for 24h at 37 °C in humidified 5%CO2/95% air atmospheric conditions.
(§4) The medium was removed; the compounds were added to the plates at 10 μM concentrations (in 0.1% DMSO) in triplicates, followed by incubation for 48h. DMSO (0.1%) was used as control. After incubation, medium was removed followed by the addition of PI (25 μl, 50μg/mL in water/medium) to each well of the plates. At -80 °C, the plates were allowed to freeze for 24 h, followed by thawing at 25 °C. A fluorometer (Polar-Star BMG Tech) was used to record the readings at excitation and emission wavelengths of 530 and 620 nm for each well. The percentage cytotoxicity of compounds was calculated using the following formula:
(§5) Where ATC= Absorbance of treated cells and AC= Absorbance of control. Erlotinib was used as positive control in the assay.

The target of the next series is T2, BRAF^V600E (Mus musculus, UniProt P28028, V585E).
T2 construct: Mouse full-length GST-tagged BRAFV600E (7.5 ng,; GST; purchased Invitrogen PV3849
Briefly: BRAF^V600E inhibitory assay. The note with it: read-out: BRAF^V600E Inhibition IC50 ± SEM. The class given is biochemical. The method, then: See Supplementary Information. […]
4.2.3. BRAFV600E inhibitory assay
V600E mutant BRAF kinase assay was performed to investigate the activity of tested compounds against BRAF. Mouse full-length GST-tagged BRAFV600E (7.5 ng, Invitrogen, PV3849) was pre-incubated with drug (1 µL) and assay dilution buffer (4 µL) for 60 min at 25 °C. In assay dilution buffer, a solution (5 µL) containing MgCl2 (30 mM), ATP (200 µM), recombinant human full length (200 ng) […] N-terminal His-tagged MEK1 (Invitrogen) was added to start the assay, subsequent to incubation for 25 min at 25 °C. The assay was stopped using 5X protein denaturing buffer (LDS) solution (5 µL). To further denature the protein, heat (70° C) was applied for 5 min. 4- […]
200 V). 10 µL of each reaction was loaded into the precast plates and electrophoresis was allowed to proceed. After completion of electrophoresis, the front part of the precast gel plate (holding hot ATP) was cut and afterwards cast-off. The dried gel was developed using a phosphor screen. A reaction without active enzyme was used as negative control while that containing no inhibitor served as positive control. […]
4.3. Statistical analysis
Computerized Prism 5 program was used to statistically analyzed data using one-way ANOVA test followed by Tukey’s as post ANOVA for multiple comparison at P ≤.05.
Data were presented as mean ± SEM.

Series [4] concerns pancreatic cancer (Panc-1) cell line. The experiment in a line: Antiproliferative assay, Panc-1. The class given is cell-based. The note with it: Homo sapiens; Panc-1 pancreatic cancer cells; read-out: Antiproliferative Activity IC50 ± SEM, Panc-1. The method, then: as §1, §2, §3, §4, §5
The test system of series [5] is colon cancer (HT-29) cell line. The experiment in a line: Antiproliferative assay, HT-29. The format is cell-based. The settings on record: Homo sapiens; HT-29 colon cancer cells; read-out: Antiproliferative Activity IC50 ± SEM, HT-29. The method, then: as §1, §2, §3, §4, §5
The target in series [6] is T1, EGFR. The experiment in a line: EGFR-TK inhibitory assay. The format is biochemical. On the procedure: 4.2.2. EGFR inhibitory assay
Baculoviral expression vectors including pBlueBacHis2B and pFASTBacHTc were […]
5ʹ upstream to the EGFR sequence comprised a sequence that encoded (His)6. Sf-9 cells were infected for 72h for protein expression. The pellets of Sf-9 cells were solubilized in a buffer containing sodium vanadate (100 μM), aprotinin (10 μg/mL), triton (1%), HEPES buffer(50mM), ammonium molybdate (10 μM), benzamidine HCl (16 μg/mL), NaCl (10 mM),leupeptin (10 μg/mL) and pepstatin (10 μg/mL) at 0°C for 20 min at pH 7.4, followed by centrifugation for 20 min. To eliminate the nonspecifically bound material, a Ni-NTA super flow packed column was used to pass through and wash the crude extract supernatant first with 10mM and then with 100 mM imidazole. Histidine-linked proteins were first eluted with 250 and then with 500 mM imidazole subsequent to dialysis against NaCl (50 mM), HEPES (20 mM), glycerol (10%) and 1 μg/mL each of aprotinin, leupeptin and pepstatin for 120 min. The purification was performed either at 4 °C or on ice. To record autophosphorylation level, EGFR kinase assay was carried out on the basis of DELFIA/Time-Resolved Fluorometry. The compounds were first dissolved in DMSO […]
pH 7.4. Each compound (10 μL) was incubated with recombinant enzyme (10 μL, 5 ng for EGFR, 1:80 dilution in 100 mM HEPES) for 10 min at 25 °C, subsequent to the addition of 5X buffer (10 μL, containing 2 mM MnCl2, 100 μM Na3VO4, 20 mM HEPES and 1 mM DTT) and ATP-MgCl2 (20 μL, containing 0.1 mM ATP and 50 mM MgCl2) and incubation for 1h. The negative and positive controls were included in each plate by the incubation of enzyme either with or without ATP-MgCl2. The liquid was removed after incubation and the plates were washed thrice using wash buffer.
Europium-tagged antiphosphotyrosine antibody (75 μL, 400 ng) was added to each well followed by incubation of 1h and then washing of the plates using buffer. The enhancement solution was added to each well and the signal was recorded at excitation […]
The autophosphorylation percentage inhibition by compounds was calculated using the following equation: […]

Series [7] has as its system lung cancer (A-549) cell line. The experiment in a line: Antiproliferative assay, A-549. The format is cell-based. The note with it: Homo sapiens, A549; A-549 lung cancer cells; read-out: Antiproliferative Activity IC50 ± SEM, A-549. The method, then:
as §1, §2, §3, §4, §5
(§6) (1 picture or pasted object on this page, not shown here)

Series [8] relates to four human cancer cell lines (A-549, MCF-7, Panc-1, HT-29). The experiment in a line: Antiproliferative assay, average over four cancer cell lines (GI50). The class given is cell-based. The note with it: Homo sapiens; average IC50 (GI50) over A-549, MCF-7, Panc-1, HT-29. On the procedure:
as §1
To explore the antiproliferative potential of compounds propidium iodide fluorescence assay was performed using different cell lines such as Panc-1 (pancreas cancer cell […]
(epithelial cancer cell line), respectively. To calculate the total nuclear DNA, a fluorescent dye (propidium iodide, PI) is used which can attach to the DNA, thus offering a quick and precise technique. PI cannot pass through the cell membrane and its signal intensity can be considered as directly proportional to quantity of cellular
DNA. Cells whose cell membranes are damaged or have changed permeability are counted as dead ones. The assay was performed by seeding the cells of different cell lines at a density of 3000-7500 cells/well (in200μl medium) in culture plates followed […]
as §4
Where ATC= Absorbance of treated cells and AC= Absorbance of control. […]
was used as positive control in the assay.
as §6

T1 sequence (P00533 669-1210): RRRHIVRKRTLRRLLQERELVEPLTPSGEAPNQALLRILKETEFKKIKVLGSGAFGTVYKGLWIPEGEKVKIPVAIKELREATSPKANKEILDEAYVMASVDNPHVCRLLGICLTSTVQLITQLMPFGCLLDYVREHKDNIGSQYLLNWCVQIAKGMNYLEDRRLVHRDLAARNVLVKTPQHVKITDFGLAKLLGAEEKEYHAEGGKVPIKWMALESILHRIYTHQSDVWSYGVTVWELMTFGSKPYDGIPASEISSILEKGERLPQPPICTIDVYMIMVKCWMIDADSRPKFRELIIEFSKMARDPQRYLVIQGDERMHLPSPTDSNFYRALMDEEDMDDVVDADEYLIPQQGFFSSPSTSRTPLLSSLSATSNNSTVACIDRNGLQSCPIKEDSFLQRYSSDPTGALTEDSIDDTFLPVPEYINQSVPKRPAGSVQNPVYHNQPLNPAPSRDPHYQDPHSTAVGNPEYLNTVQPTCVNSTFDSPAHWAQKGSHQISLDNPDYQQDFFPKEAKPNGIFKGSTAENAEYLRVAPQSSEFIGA
T2 sequence (P28028 whole entry V585E): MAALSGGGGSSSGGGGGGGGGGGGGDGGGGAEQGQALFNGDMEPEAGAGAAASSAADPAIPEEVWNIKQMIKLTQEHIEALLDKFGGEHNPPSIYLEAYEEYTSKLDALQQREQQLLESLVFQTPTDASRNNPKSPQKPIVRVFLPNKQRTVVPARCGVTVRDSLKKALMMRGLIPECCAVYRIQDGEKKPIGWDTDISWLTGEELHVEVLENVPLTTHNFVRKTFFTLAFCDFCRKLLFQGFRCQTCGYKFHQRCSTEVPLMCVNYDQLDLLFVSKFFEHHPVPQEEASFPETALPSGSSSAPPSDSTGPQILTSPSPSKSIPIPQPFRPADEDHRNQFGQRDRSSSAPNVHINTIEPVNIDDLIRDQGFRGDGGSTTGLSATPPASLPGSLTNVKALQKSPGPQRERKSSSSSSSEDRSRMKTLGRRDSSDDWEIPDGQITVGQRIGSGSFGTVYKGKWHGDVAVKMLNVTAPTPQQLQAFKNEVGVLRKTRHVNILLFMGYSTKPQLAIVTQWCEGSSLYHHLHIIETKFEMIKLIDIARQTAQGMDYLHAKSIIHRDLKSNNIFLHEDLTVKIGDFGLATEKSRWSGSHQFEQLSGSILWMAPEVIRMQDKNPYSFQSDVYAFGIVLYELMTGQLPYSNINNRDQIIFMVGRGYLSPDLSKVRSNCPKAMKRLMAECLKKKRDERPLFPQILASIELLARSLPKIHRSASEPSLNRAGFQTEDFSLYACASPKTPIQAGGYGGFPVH

As a reminder, the IC50 is the concentration that gives 50% inhibition. A word on the GI50: it is the concentration that inhibits growth by half. Regarding `COc1cccc(-n2c(-c3ccccc3)cs/c2=N\c2c[nH]c(=O)[nH]c2=O)c1` [Compound V], the IC50 on EGFR [1] is 74 ± 7 nM. In [2], the GI50 was 900 nM.

The viability is a read-out of living cells in per cent, often relative to untreated cells. Take `Cc1ccc(-n2c(C)cs/c2=N/Nc2ccc([N+](=O)[O-])cc2[N+](=O)[O-])cc1` [Compound 3f, (Z)-2-(2-(2,4-Dinitrophenyl)Hydrazineylidene)-4-Methyl-3-(p-Tolyl)-2,3-Dihydrothi-Azole]: in the series “in vitro”, the viability at 96 h, 50 µM amounted to 89%. Also, the IC50 in series [3] turned out to be 40 ± 3 nM; at BRAF^V600E, 93 ± 8 nM; in series [4] it was 37 ± 3 nM; in series [5], 37 ± 3 nM; at EGFR [6] (read-out: EGFR Inhibition IC50 ± SEM), 89 ± 7 nM; in series [7] it was 35 ± 3 nM. The midpoint of inhibition in [8], the IC50, lay at 37 nM. The “fold less potent than erlotinib (EGFR IC50)” value at EGFR [6] (ratio of EGFR IC50 to that of erlotinib) came out at 1.1 fold.
